This is an account of results in patent publication US12097200B2, “Combination of BI853520 with chemotherapeutic drugs” (INXMED (NANJING) CO., LTD., priority 2020, dated 2024).

Several values for one entry are separate records, joined by “and”; a condition that tells them apart may be missing. Equal entries are not always repeated. Entries after “also recorded” stand apart in the source; their conditions may differ.

One series concerns NCI-H520 cells. Particulars: NCI-H520 xenograft, day 22, combination of both.
For another series, the system named is KYSE-70 cells. Nature of the series: Antitumor activity in mouse xenograft model of human esophageal cancer (KYSE-70). The series is classed as in vivo. As to conditions: KYSE-70 xenograft, combination of both.
The subject of a further series is HS 746T cells. Nature of the series: Antitumor activity in mouse xenograft model of human gastric cancer (HS 746T). Format: in vivo. Particulars: HS 746T xenograft, combination of both. The text has this:
(§1) For tumor volume, absolute values were used.
(§2) Appropriate statistical methods were used for evaluation.
HS 746T: Approximately 6 week old mice.
For orientation: A xenograft is tissue or cells of one species grown in another, often human tumour cells in immunodeficient mice.

For series [1], the system named is GXA 3039 gastric cancer PDX model.
Procedure: Mice were housed in individual ventilated cages ([sequence] Sealsafe™-IVC-System, [sequence], Hohenpeissenberg, Germany), and type II or III cages were selected according to the number of experimental animals. The cages were under the conditions: 14L:10D light-dark cycle, air exchange (AC) rate of 60-65 AC/hr in the cage, 25±1° C. and 40-70% humidity. […] Water and diet were changed twice a week, and all materials were autoclaved before use.
Tumor fragments were implanted subcutaneously into the flank of female pre-study mice. […] Animals that were not randomized were euthanized. The date of randomization was designated as day 0 of the test, and dosing began on day 1. […] If less than 70% of the original number of mice survived (i.e. less than 6 out of 8), the entire group was terminated. […] Tolerability was assessed using the group with the largest median body weight loss (BWL) among groups.
Inhibition of tumor growth was determined by calculating TGI.
Additional endpoints used to assess efficacy included: time to tumor volume doubling/quadrupling and tumor growth delay/time to tumor progression/tumor repopulation.
Time to tumor volume doubling/quadrupling: The time to tumor volume doubling/quadrupling (Td/Tq) for the test and control groups was defined as the time interval (in days) required for each group to reach 200%/400% of the median RTV. The relative volume of a single tumor on day X (RTVx [%]) was obtained by dividing the absolute volume of the tumor on day X (Tx) by the absolute volume of the tumor on day 0 (T0) and then multiplying it by 100, as follows:
Tumor growth delay/time to tumor progression/tumor repopulation: To assess the difference in time to tumor progression/tumor repopulation after tumor regression during the no-dose observation period (tumor growth delay, TGD), Kaplan-Meier survival analysis was used. A relative tumor volume of 400% was defined as the endpoint.
The control group for oral administration was 0.5% Natrosol. The control group for intravenous administration was 0.9% saline. Each dose was 10 ml/kg.
Data were used for statistical analysis at the end of the study. The one-tailed nonparametric Mann-Whitney-Wilcoxon U test was used with the significance level a set at 0.05. The p-values obtained from the U-test were adjusted using the Bonferroni-Holm correction.
To assess the statistical significance of differences in time to tumor progression/tumor growth delay (TGD) using 400% of RTV as the trial endpoint, the Kaplan-Meier survival mode statistic was used in conjunction with the log-rank Mantel-Cox test for pairwise comparisons.
Additionally, to assess tolerance to treatment, a two-tailed nonparametric Mann-Whitney-Wilcoxon U test was performed using body weights determined at the end of the dosing period (i.e., on the day TGI values were calculated).
By convention, p-values≤0.05 represented significant tumor inhibition or weight loss.
A further series deals with KYSE-270 cells. In words: Antitumor activity in mouse xenograft model of human esophageal cancer (KYSE-270). The series is classed as in vivo. As to conditions: KYSE-270 xenograft.
Source text: as §1, §2
Mice were approximately 8-10 weeks old.
KYSE-270 was a cell line for esophageal cancer (Public Health England, Cat. No. 94072021).

Where [2] appears, read: BI 853520 50 mg/kg qd, cisplatin 5 mg/kg IP q7d.
The mark [3] stands for this setting: BI 853520 50 mg/kg qd, docetaxel 10 mg/kg q7d.
Where [4] appears, read: BI 853520 50 mg/kg qd, paclitaxel 10 mg/kg q7d, combination of both.

Procedure for NCI-H520 cells: Mice were approximately 6 weeks old. There were 5 mice in each group.
The cell concentration of the culture was maintained between 8×10^6 to 12×10^7 cells/tissue culture flask.
Cisplatin was dissolved in 0.9% saline.
Statistical evaluation was performed using the Student's t-test function in Microsoft Excel, utilizing a two-tailed distribution and a two-sample equal variance type.

Turning to `N.N.[Cl][Pt][Cl]` [Cisplatin, reference compound], the Median tumor volume in the series with NCI-H520 cells (BI 853520 50 mg/kg qd by gavage, cisplatin 5 mg/kg IP once a week) amounted to 228 mm^3. Further, in the series on NCI-H520 cells (setting [2]), the “Median TGI” value was found to be 74% and the “Tumor regression (animals with regression/animals in group)” value was 0/7.
For `CC(=O)O[C@@]12CO[C@@H]1C[C@H](O)[C@@]1(C)C(=O)[C@H](O)C3=C(C)[C@@H](OC(=O)[C@H](O)[C@@H](NC(=O)OC(C)(C)C)c4ccccc4)C[C@@](O)([C@@H](OC(=O)c4ccccc4)[C@H]21)C3(C)C` [Docetaxel, reference compound], the Median tumor volume in the series on KYSE-70 cells (day 42, BI 853520 50 mg/kg qd by gavage, docetaxel 10 mg/kg q7d i.v.) is given as 73 mm^3. In addition, in the series with KYSE-70 cells (setting [3]), the “Antitumor effect (in words)” value is “had inhibitory effect”, the “Change in median body weight” value came to 5.6% and the TGI came to 100%. Also, the Median tumor volume in the series with HS 746T cells (day 24 (withdrawal on day 28), BI 853520 50 mg/kg qd by gavage, docetaxel 10 mg/kg q7d i.v.) is listed as 0 mm^3. Besides, in the series with HS 746T cells (setting [3]), the “Antitumor effect (in words)” value was “had inhibitory effect”, the “Change in median body weight” value is listed as 6.7% and the TGI amounted to 108%. Besides, in series [1] (GXA 3039 PDX, time to 200% of median RTV, doses as Table 8), the “Td (time to tumor volume doubling)” value was determined as 8.5 days. Besides, the “Tq (time to tumor volume quadrupling)” value in series [1] (GXA 3039 PDX, time to 400% of median RTV, nr = not reached until end of test, doses as Table 8) is 108.0 days. For the same compound, the “TGI [%] (d)” value in series [1] (GXA 3039 gastric cancer PDX, day 36, BI 853520 50 mg/kg/d PO days 1-35, docetaxel 10 mg/kg IV days 1, 8, 15, 22, 29, combination of both) is 113% and 113(36) %. Moreover, the Survival rate in series [1] (female, BomTac:NMRI-Foxn1nu, mouse, in vivo) was 2/8. In series [1] (mouse, in vivo), the “Median BWL maximum” value was determined as 2.1% and the “Median BWL maximum, day” value turned out to be 2 days.
Regarding `CC(=O)O[C@H]1C(=O)[C@@]2(C)[C@H]([C@H](OC(=O)c3ccccc3)[C@]3(O)C[C@H](OC(=O)[C@H](O)[C@@H](NC(=O)c4ccccc4)c4ccccc4)C(C)=C1C3(C)C)[C@]1(OC(C)=O)CO[C@@H]1C[C@@H]2O` [Paclitaxel], the Median tumor volume in the series with KYSE-270 cells (day 13, BI 853520 50 mg/kg qd by gavage, paclitaxel 10 mg/kg q7d i.v., combination of both) turned out to be 1033 mm^3. For the same compound, the TGI with KYSE-270 cells (day 13, BI 853520 50 mg/kg qd, paclitaxel 10 mg/kg q7d, combination of both) came out at 2%. Also, in the series on KYSE-270 cells (setting [4]), the “Antitumor effect (in words)” value is “no effect on tumor growth; also recorded: had no effect”; the “Change in median body weight” value is given as −9.7%; the “Tumor regression (animals with regression/animals in group)” value is “no tumor regression and 0/7”. The “Animal body weight decreased by” value in the series on KYSE-270 cells (paclitaxel 10 mg/kg q7d, value is a decrease) amounted to 9.7%.
